From patent publication US12084437B2, “Halo-substituted piperidines as orexin receptor modulators” (AstraZeneca AB, priority 2016, dated 2024) come the findings set out here.

Assay [1] has as its target T1, OX1 (Homo sapiens, UniProt O43613).
T1 construct: expressed in transfected cells; host or cells: CHO (CHO-OX1)
T1 sequence (O43613 1-425): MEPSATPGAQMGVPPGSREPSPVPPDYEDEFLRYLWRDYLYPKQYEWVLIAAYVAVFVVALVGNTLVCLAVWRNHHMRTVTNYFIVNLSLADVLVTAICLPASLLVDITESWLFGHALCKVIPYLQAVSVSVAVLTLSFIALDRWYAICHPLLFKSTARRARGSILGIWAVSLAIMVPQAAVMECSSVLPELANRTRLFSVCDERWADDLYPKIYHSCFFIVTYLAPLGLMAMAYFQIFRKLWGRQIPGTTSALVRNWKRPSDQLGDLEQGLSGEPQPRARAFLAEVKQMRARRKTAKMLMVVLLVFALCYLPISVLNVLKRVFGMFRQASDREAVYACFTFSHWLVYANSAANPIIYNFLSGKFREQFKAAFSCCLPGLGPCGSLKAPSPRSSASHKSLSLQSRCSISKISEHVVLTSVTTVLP
Put plainly: Orexin receptor cell-based functional assay, [Ca2+]i by FLIPR, CHO-OX1 cells. Conditions: FLIPR calcium, antagonism of EC90 of [OX], read-out: OXI, IC50.

The target of assay [2] is T2, OX2 (Homo sapiens, UniProt O43614).
T2 construct: expressed in transfected cells; host or cells: CHO (CHO-OX2)
T2 sequence (O43614 1-444): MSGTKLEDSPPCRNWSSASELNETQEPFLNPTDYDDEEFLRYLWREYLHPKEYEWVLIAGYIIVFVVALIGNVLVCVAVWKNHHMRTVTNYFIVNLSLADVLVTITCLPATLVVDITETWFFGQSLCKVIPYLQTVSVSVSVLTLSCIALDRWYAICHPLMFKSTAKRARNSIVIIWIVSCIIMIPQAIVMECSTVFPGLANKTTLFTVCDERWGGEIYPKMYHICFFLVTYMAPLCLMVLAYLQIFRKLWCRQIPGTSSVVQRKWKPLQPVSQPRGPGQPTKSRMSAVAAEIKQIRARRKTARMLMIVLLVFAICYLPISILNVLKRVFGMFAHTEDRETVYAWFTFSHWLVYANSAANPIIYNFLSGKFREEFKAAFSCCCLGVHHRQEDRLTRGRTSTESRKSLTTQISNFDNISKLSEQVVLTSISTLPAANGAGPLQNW
As to the kind of experiment: Orexin receptor cell-based functional assay, [Ca2+]i by FLIPR, CHO-OX2 cells. The conditions noted are these: FLIPR calcium, antagonism of EC90 of [OX]. Put shortly:
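CHO cells expressing human OX1 or OX2 (20,000/well, grown overnight) were loaded with Calcium6 dye plus 2.5 mM probenecid for 2 h at 37 °C, then preincubated 30 min with compound (0.1 nM–10 µM). FLIPR fluorescence (ex 488/em 540 nm) was tracked before and after an EC90 orexin challenge.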

On to `Cc1ccc(-n2nccn2)c(C(=O)N2CC(F)(F)C[C@@H](C)[C@H]2COc2ccc(C(F)(F)F)cn2)n1` [Compound 204, ((2S,3R)-5,5-difluoro-3-methyl-2-(((5-(trifluoromethyl)pyridin-2-yl)oxy)methyl)piperidin-1-yl)(6-methyl-3-(2H-1,2,3-triazol-2-yl)pyridin-2-yl)methanone], for which the results for the IC50 in assay [1] and in assay [2] were 0.04 µM and above 5 µM, respectively.

As to `Cc1ccc(-n2nccn2)c(C(=O)N2CC(F)(F)C[C@@H](C)[C@H]2CNc2ccc(C(F)(F)F)cn2)n1` [Compound 174], the IC50 in assay [1] is 0.004 µM; in assay [2], above 5 µM.

On to `C[C@@H]1CC(F)(F)CN(C(=O)c2nn(C)cc2-c2ncccn2)[C@@H]1COc1ncc(C(F)(F)F)cn1` [Compound 222, ((2S,3R)-5,5-difluoro-3-methyl-2-(((5-(trifluoromethyl)pyrimidin-2-yl)oxy)methyl)piperidin-1-yl)(1-methyl-4-(pyrimidin-2-yl)-1H-pyrazol-3-yl)methanone], for which the figures for the IC50 in assay [1] and in assay [2] were 0.026 µM and above 5 µM, respectively.

On to `COc1ccc(-c2cn(C)nc2C(=O)N2CC(F)(F)C[C@@H](C)[C@H]2CNc2ncc(C(F)(F)F)cn2)nc1` [Compound 45], for which the IC50 in assay [1] is 0.047 µM; in assay [2], above 5 µM.

Regarding `C[C@@H]1CC(F)(F)CN(C(=O)c2nn(C)cc2-c2ccccn2)[C@@H]1CNc1ncc(C(F)(F)F)cn1` [Compound 36], the results for the half-maximal inhibitory concentration (IC50) in assay [1] and in assay [2] were 0.019 µM and above 5 µM, respectively.

Take `Cc1ccc(-n2nccn2)c(C(=O)N2CC(F)(F)C[C@@H](C)[C@H]2CNc2ncc(Cl)cn2)n1` [Compound 13]: the IC50 in assay [1] is 0.015 µM; in assay [2], above 5 µM.

On to `Cc1ccc(-n2ncc(C)n2)c(C(=O)N2CC(F)(F)C[C@@H](C)[C@H]2CNc2ncc(C(F)(F)F)cn2)c1` [Compound 7], for which the IC50 in assay [1] is 0.007 µM; in assay [2], above 5 µM.

As for `Cc1ccc(-n2nccn2)c(C(=O)N2CC(F)(F)C[C@@H](C)[C@H]2CNc2ncc(Cl)cn2)c1` [Compound 6], the 50% inhibitory concentration (IC50) in assay [1] is 0.008 µM; in assay [2], above 5 µM.

Take `C[C@@H]1CC(F)(F)CN(C(=O)c2nn(C)cc2-c2ncc(F)cn2)[C@@H]1CNc1ncc(C(F)(F)F)cn1` [Compound 217, ((2S,3R)-5,5-difluoro-3-methyl-2-(((5-(trifluoromethyl)pyrimidin-2-yl)amino)methyl)piperidin-1-yl)(4-(5-fluoropyrimidin-2-yl)-1-methyl-1H-pyrazol-3-yl)methanone]: the IC50 is 0.004 µM in assay [1] and above 5 µM in assay [2].

Turning to `C[C@@H]1CC(F)(F)CN(C(=O)c2nn(C)cc2-c2cccc(F)c2)[C@@H]1CNc1ncc(C(F)(F)F)cn1` [Compound 25], the half-maximal inhibitory concentration (IC50) in assay [1] was 0.004 µM; in assay [2], above 5 µM.

Take `C[C@@H]1CC(F)(F)CN(C(=O)c2cc(F)ccc2-c2ncccn2)[C@@H]1CNc1ncc(C(F)(F)F)cn1` [Compound 54]: the IC50 in assay [1] is 0.043 µM; in assay [2], above 5 µM.

In the case of `C[C@@H]1CC(F)(F)CN(C(=O)c2cc(Cl)ccc2-n2nccn2)[C@@H]1CNc1ncc(Cl)cn1` [Compound 11], the IC50 in assay [1] is 0.008 µM; in assay [2], above 5 µM.

Regarding `Cc1cccc(-c2cn(C)nc2C(=O)N2CC(F)(F)C[C@@H](C)[C@H]2CNc2cnc(C(F)(F)F)cn2)c1` [Compound 123], the IC50 is 0.002 µM in assay [1] and above 5 µM in assay [2].

For `C[C@@H]1CC(F)(F)CN(C(=O)c2nc(C(F)(F)F)ccc2-n2nccn2)[C@@H]1CNc1ccc(C(F)(F)F)cn1` [Compound 203, (3-(2H-1,2,3-triazol-2-yl)-6-(trifluoromethyl)pyridin-2-yl)((2S,3R)-5,5-difluoro-3-methyl-2-(((5-(trifluoromethyl)pyridin-2-yl)amino)methyl)piperidin-1-yl)methanone], the IC50 is above 5 µM in assay [1] and 3.7 µM in assay [2].

For the compound `C[C@@H]1CC(F)(F)CN(C(=O)c2nn(C)cc2-c2ncc(F)cn2)[C@@H]1COc1ccc(C(F)(F)F)cn1` [Compound 248], the IC50 is 0.05 µM in assay [1] and above 5 µM in assay [2].

With `Cc1nc(C(=O)N2CC(F)(F)C[C@@H](C)[C@H]2CNc2ncc(C(F)(F)F)cn2)c(-c2ccc(F)cc2)s1` [Compound 68, ((2S,3R)-5,5-difluoro-3-methyl-2-(((5-(trifluoromethyl)pyrimidin-2-yl)amino)methyl)piperidin-1-yl)(5-(4-fluorophenyl)-2-methylthiazol-4-yl)methanone], the values for the IC50 in assay [1] and in assay [2] were 0.008 µM and above 5 µM, respectively.

With `Cc1nc(C(=O)N2CC(F)(F)C[C@@H](C)[C@H]2CNc2cnc(C(F)(F)F)cn2)c(-c2ccccc2)o1` [Compound 157], the IC50 is 0.186 µM in assay [1] and above 5 µM in assay [2].

For `CCc1cnc(NC[C@@H]2[C@H](C)CC(F)(F)CN2C(=O)c2nn(C)cc2-c2ccccc2)nc1` [Compound 20], the IC50 was 0.087 µM in assay [1] and above 5 µM in assay [2].

For `Cc1ccc(-c2sc(C)nc2C(=O)N2CC(F)(F)C[C@@H](C)[C@H]2CNc2cnc(C(F)(F)F)cn2)cc1` [Compound 138], the IC50 is 0.006 µM in assay [1] and above 5 µM in assay [2].

For `C[C@@H]1CC(F)(F)CN(C(=O)c2nn(C)cc2-c2cccnc2)[C@@H]1CNc1ncc(C(F)(F)F)cn1` [Compound 90], the IC50 in assay [1] is 0.206 µM; in assay [2], above 5 µM.

Turning to `CC(C)n1cc(-c2ncccn2)c(C(=O)N2CC(F)(F)C[C@@H](C)[C@H]2CNc2ncc(C(F)(F)F)cn2)n1` [Compound 237, ((2S,3R)-5,5-difluoro-3-methyl-2-(((5-(trifluoromethyl)pyrimidin-2-yl)amino)methyl)piperidin-1-yl)(1-isopropyl-4-(pyrimidin-2-yl)-1H-pyrazol-3-yl)methanone], the 50% inhibitory concentration (IC50) is 1.7 µM in assay [1] and above 5 µM in assay [2].

With `C[C@@H]1CC(F)(F)CN(C(=O)c2nn(CC(F)(F)F)cc2-c2ncccn2)[C@@H]1CNc1ncc(C(F)(F)F)cn1` [Compound 238, ((2S,3R)-5,5-difluoro-3-methyl-2-(((5-(trifluoromethyl)pyrimidin-2-yl)amino)methyl)piperidin-1-yl)(4-(pyrimidin-2-yl)-1-(2,2,2-trifluoroethyl)-1H-pyrazol-3-yl)methanone], the values for the IC50 in assay [1] and in assay [2] were above 2 µM and above 5 µM, respectively.

With `Cc1nc(C(=O)N2CC(F)(F)C[C@@H](C)[C@H]2CNc2ncc(C(F)(F)F)cn2)c(-c2ccccc2F)s1` [Compound 66], the IC50 in assay [1] amounted to 0.001 µM; in assay [2], 2.08 µM.

As for `Cc1nc(C(=O)N2CC(F)(F)C[C@@H](C)[C@H]2CNc2ncc(C(F)(F)F)cn2)c(-c2ccc(F)cc2)o1` [Compound 84], the concentration for half-maximal inhibition (IC50) is 0.13 µM in assay [1] and above 5 µM in assay [2].

Regarding `C[C@@H]1CC(F)(F)CN(C(=O)c2nn(C)cc2-c2ccccn2)[C@@H]1CNc1cnc(C(F)(F)F)cn1` [Compound 130], the figures for the IC50 in assay [1] and in assay [2] were 0.006 µM and above 5 µM, respectively.

`C[C@@H]1CC(F)(F)CN(C(=O)c2cn(C)nc2-c2ccccc2)[C@@H]1COc1ncc(C(F)(F)F)cn1` [Compound 209]: the IC50 is 0.28 µM in assay [1] and above 5 µM in assay [2].

Turning to `COc1cccc(-c2sc(C)nc2C(=O)N2CC(F)(F)C[C@@H](C)[C@H]2CNc2cnc(C(F)(F)F)cn2)c1` [Compound 142], the IC50 in assay [1] was 0.004 µM; in assay [2], above 5 µM.

Consider `Cc1nc(C(=O)N2CC(F)(F)C[C@@H](C)[C@H]2CNc2ncc(C(F)(F)F)cn2)c(-c2ccccn2)o1` [Compound 87], for which the values for the IC50 in assay [1] and in assay [2] were above 1 µM and above 5 µM, respectively.

With `C[C@@H]1CC(F)(F)CN(C(=O)c2nn(C)cc2-c2ncc(F)cn2)[C@@H]1CN(C)c1ncc(C(F)(F)F)cn1` [Compound 263], the IC50 in assay [1] is 0.057 µM; in assay [2], above 5 µM.

`C[C@@H]1CC(F)(F)CN(C(=O)c2cn(C)nc2-c2ccccc2)[C@@H]1CNc1ncc(Cl)cn1` [Compound 254]: the IC50 in assay [1] was 0.07 µM; in assay [2], above 5 µM.

On to `C[C@@H]1CC(F)(F)CN(C(=O)c2nn(C)cc2-c2ncccn2)[C@@H]1CNc1ncc(C(F)(F)F)cc1F` [Compound 228, ((2S,3R)-5,5-difluoro-2-(((3-fluoro-5-(trifluoromethyl)pyridin-2-yl)amino)methyl)-3-methylpiperidin-1-yl)(1-methyl-4-(pyrimidin-2-yl)-1H-pyrazol-3-yl)methanone], for which the IC50 in assay [1] is 0.014 µM; in assay [2], above 5 µM.

By IC50 is commonly meant the concentration at which inhibition is half-maximal.
